Data set [1] has as its system Rattus norvegicus. The data set is described as follows: Anti-inflammatory activity in Rattus norvegicus Wistar (rat) assessed as inhibition of carrageenan-induced paw edema at 160 mg/kg, po administered 30 min prior to carrageenan challenge measured at 4 hr relative to control. The class given is functional.
Data set [2] concerns Mus musculus. Kind of data set: Analgesic activity in Mus musculus Swiss albino (mouse) assessed as inhibition of acetic acid-induced writhing at 160 mg/kg, po administered 30 min prior challenge measured after 5 min of challenge for next 30 min relative to control. The data set is classed as functional. For orientation: Writhing tests count abdominal constrictions after an irritant is injected.

For data set [3], the system named is Mus musculus. The data set is described as follows: Toxicity in Mus musculus Swiss albino (mouse) assessed as mortality at 500 to 2000 mg/kg, po measured after 14 days. Set-up: dose 500-2000 mg/kg, route oral. The class given is organism-based. The settings on record: in vivo, 336 h.
In data set [4] the test system is Mus musculus. The data set is described as follows: Toxicity in Mus musculus Swiss albino (mouse) assessed as changes in behavioral pattern at 500 to 2000 mg/kg, po measured after 14 days. The data set is classed as organism-based. On the set-up: dose 500-2000 mg/kg, route oral. The settings on record: in vivo, 336 h.
In data set [5] the test system is Mus musculus. The data set is described as follows: Toxicity in Mus musculus Swiss albino (mouse) assessed as abnormal changes in eyes at 500 to 2000 mg/kg, po measured after 14 days. The data set is classed as organism-based. On the set-up: dose 500-2000 mg/kg, route oral. To be noted: in vivo, 336 h.
Data set [6] deals with Mus musculus. Kind of data set: Toxicity in Mus musculus Swiss albino (mouse) assessed as abnormal changes in fur at 500 to 2000 mg/kg, po measured after 14 days. The settings on record: in vivo, 336 h. Set-up: dose 500-2000 mg/kg, route oral. The class given is organism-based.
In data set [7] the test system is Mus musculus. Kind of data set: Toxicity in Mus musculus Swiss albino (mouse) assessed as abnormal changes in skin at 500 to 2000 mg/kg, po measured after 14 days. The data set is classed as organism-based. Set-up: dose 500-2000 mg/kg, route oral. To be noted: in vivo, 336 h.
Data set [8] relates to Mus musculus. The data set is described as follows: Analgesic activity in Mus musculus Swiss albino (mouse) assessed as inhibition of acetic acid-induced writhing at 10 mg/kg, po administered 30 min prior challenge measured after 5 min of challenge for next 30 min relative to control. The data set is classed as functional.
Data set [9] concerns Rattus norvegicus. Kind of data set: Anti-inflammatory activity in Rattus norvegicus Wistar (rat) assessed as inhibition of carrageenan-induced paw edema at 10 mg/kg, po administered 30 min prior to carrageenan challenge measured at 4 hr relative to control. The class given is functional. (In general: The carrageenan paw model is a standard test of acute inflammation.)

As usually defined, the inhibition in vivo is the relative decrease from the control value, in per cent. In the case of `COc1ccc(C(=O)/C=C/c2ccc(O)c(OC)c2)cc1`, the figures for the inhibition in vivo at 160 mg/kg in the data set on Rattus norvegicus [1] and in the data set with Mus musculus [2] were 80% and 89.6%, respectively. In addition, the Activity result in the data set on Mus musculus [3], with Mus musculus [4], with Mus musculus [5], in the data set on Mus musculus [6] and in the data set on Mus musculus [7] was “Non-toxic” throughout.
`COc1ccc(/C=C/C(=O)c2ccc(Br)cc2)cc1`: the inhibition in vivo at 160 mg/kg came to 67.7% in the data set on Rattus norvegicus [1] and 70.8% with Mus musculus [2]. The Activity entry in the data set with Mus musculus [3], in the data set on Mus musculus [4], in the data set with Mus musculus [5], in the data set with Mus musculus [6] and with Mus musculus [7] was “Non-toxic” throughout.
`COc1ccc(C(=O)/C=C/c2ccc(N(C)C)cc2)cc1`: the inhibition in vivo at 160 mg/kg worked out at 69.8% with Rattus norvegicus [1] and 47.9% in the data set with Mus musculus [2]. For the same compound, the Activity entry in the data set with Mus musculus [3], in the data set with Mus musculus [4], in the data set on Mus musculus [5], in the data set on Mus musculus [6] and in the data set on Mus musculus [7] was “Non-toxic” in each case.
`CN(C)c1ccc(/C=C/C(=O)c2ccc(Br)cc2)cc1`: the results for the inhibition in vivo at 160 mg/kg in the data set with Rattus norvegicus [1] and in the data set on Mus musculus [2] were 54.5% and 31.9%, respectively. For the same compound, the Activity entry with Mus musculus [3], with Mus musculus [4], in the data set on Mus musculus [5], with Mus musculus [6] and in the data set with Mus musculus [7] was “Non-toxic” each time.
Consider `COc1ccc(/C=C/C(=O)c2ccc(-c3ccccc3)cc2)cc1`, for which the inhibition in vivo at 160 mg/kg in the data set with Rattus norvegicus [1] was 74.8%; in the data set with Mus musculus [2], 83.3%. The Activity entry in the data set with Mus musculus [3], in the data set with Mus musculus [4], in the data set on Mus musculus [5], in the data set with Mus musculus [6] and in the data set with Mus musculus [7] was “Non-toxic” in each case.
For the compound `O=C(/C=C/c1ccccc1)c1ccc(-c2ccccc2)cc1`, the inhibition in vivo at 160 mg/kg came to 68.4% in the data set on Rattus norvegicus [1] and 71.5% in the data set on Mus musculus [2]. Moreover, the Activity result in the data set with Mus musculus [3], in the data set on Mus musculus [4], in the data set with Mus musculus [5], in the data set on Mus musculus [6] and in the data set on Mus musculus [7] was “Non-toxic” in each case.
In the case of `COc1cc(/C=C/C(=O)c2ccc(-c3ccccc3)cc2)cc(OC)c1OC`, the inhibition in vivo at 160 mg/kg with Rattus norvegicus [1] was 78.7%; with Mus musculus [2], 85.4%. In addition, the Activity result with Mus musculus [3], in the data set with Mus musculus [4], in the data set on Mus musculus [5], in the data set on Mus musculus [6] and with Mus musculus [7] was “Non-toxic” in each case.
Regarding `O=C(/C=C/c1ccccc1Cl)c1ccc(-c2ccccc2)cc1`, the inhibition in vivo at 160 mg/kg worked out at 61.9% in the data set on Rattus norvegicus [1] and 85.1% with Mus musculus [2]. The Activity entry with Mus musculus [3], in the data set on Mus musculus [4], with Mus musculus [5], in the data set on Mus musculus [6] and in the data set on Mus musculus [7] was “Non-toxic” throughout.
`O=C(/C=C/c1ccc(Cl)cc1)c1ccc(-c2ccccc2)cc1`: the figures for the inhibition in vivo at 160 mg/kg with Rattus norvegicus [1] and with Mus musculus [2] were 52.9% and 74.3%, respectively. Besides, the Activity entry with Mus musculus [3], in the data set with Mus musculus [4], with Mus musculus [5], with Mus musculus [6] and with Mus musculus [7] was “Non-toxic” throughout.
Regarding `O=C(/C=C/c1ccccc1[N+](=O)[O-])c1ccc(-c2ccccc2)cc1`, the inhibition in vivo at 160 mg/kg in the data set on Rattus norvegicus [1] stood at 45.2%; in the data set on Mus musculus [2] it was 40.3%. Also, the Activity entry in the data set with Mus musculus [3], with Mus musculus [4], in the data set on Mus musculus [5], with Mus musculus [6] and in the data set on Mus musculus [7] was “Non-toxic” throughout.
`CN(C)c1ccc(/C=C/C(=O)c2ccc(-c3ccccc3)cc2)cc1`: the values for the inhibition in vivo at 160 mg/kg in the data set on Rattus norvegicus [1] and with Mus musculus [2] were 58.7% and 72.9%, respectively. The Activity entry in the data set on Mus musculus [3], with Mus musculus [4], with Mus musculus [5], in the data set on Mus musculus [6] and with Mus musculus [7] was “Non-toxic” throughout.
`O=C(/C=C/c1ccccc1O)c1ccc(-c2ccccc2)cc1`: the values for the inhibition in vivo at 160 mg/kg in the data set with Rattus norvegicus [1] and in the data set with Mus musculus [2] were 80.6% and 75.7%, respectively. For the same compound, the Activity entry in the data set on Mus musculus [3], with Mus musculus [4], in the data set with Mus musculus [5], in the data set on Mus musculus [6] and in the data set with Mus musculus [7] was “Non-toxic” each time.
For `COc1cc(/C=C/C(=O)c2ccc(-c3ccccc3)cc2)cc(OC)c1`, the inhibition in vivo at 160 mg/kg in the data set on Rattus norvegicus [1] came to 63.2%; with Mus musculus [2], 84.7%. Moreover, the Activity result with Mus musculus [3], with Mus musculus [4], in the data set with Mus musculus [5], in the data set with Mus musculus [6] and in the data set with Mus musculus [7] was “Non-toxic” throughout.
Consider `O=C(/C=C/c1ccc(O)cc1)c1ccc(-c2ccccc2)cc1`, for which the values for the inhibition in vivo at 160 mg/kg in the data set on Rattus norvegicus [1] and with Mus musculus [2] were 74.8% and 66.7%, respectively. The Activity entry in the data set on Mus musculus [3], in the data set on Mus musculus [4], in the data set on Mus musculus [5], with Mus musculus [6] and in the data set on Mus musculus [7] was “Non-toxic” in each case.
Regarding `O=C(/C=C/c1ccc(F)cc1)c1ccc(-c2ccccc2)cc1`, the figures for the inhibition in vivo at 160 mg/kg with Rattus norvegicus [1] and in the data set with Mus musculus [2] were 76.8% and 56.5%, respectively. The Activity result in the data set on Mus musculus [3], in the data set with Mus musculus [4], in the data set on Mus musculus [5], in the data set with Mus musculus [6] and with Mus musculus [7] was “Non-toxic” throughout.
As to `O=C(/C=C/c1ccoc1)c1ccc(-c2ccccc2)cc1`, the inhibition in vivo at 160 mg/kg in the data set with Rattus norvegicus [1] stood at 52.9%; with Mus musculus [2], 51.4%. The Activity result with Mus musculus [3], in the data set on Mus musculus [4], in the data set on Mus musculus [5], in the data set with Mus musculus [6] and in the data set on Mus musculus [7] was “Non-toxic” each time.
For `COc1ccc(C(=O)/C=C/c2ccccc2O)cc1`, the inhibition in vivo at 160 mg/kg came to 76.1% in the data set on Rattus norvegicus [1] and 50.7% in the data set with Mus musculus [2]. The Activity entry in the data set with Mus musculus [3], in the data set with Mus musculus [4], with Mus musculus [5], in the data set with Mus musculus [6] and in the data set with Mus musculus [7] was “Non-toxic” throughout.
With `COc1ccc(C(=O)/C=C/c2ccc(Cl)cc2)cc1`, the figures for the inhibition in vivo at 160 mg/kg in the data set with Rattus norvegicus [1] and in the data set on Mus musculus [2] were 77.6% and 48.6%, respectively. For the same compound, the Activity entry with Mus musculus [3], in the data set on Mus musculus [4], in the data set on Mus musculus [5], in the data set on Mus musculus [6] and in the data set on Mus musculus [7] was “Non-toxic” in each case.
As for `COc1ccc(C(=O)/C=C/c2ccccc2)cc1` [4'-METHOXYCHALCONE], the results for the inhibition in vivo at 160 mg/kg with Rattus norvegicus [1] and in the data set on Mus musculus [2] were 69.8% and 25.7%, respectively. In addition, the Activity result in the data set with Mus musculus [3], in the data set on Mus musculus [4], in the data set on Mus musculus [5], in the data set on Mus musculus [6] and with Mus musculus [7] was “Non-toxic” each time.
On to `COc1ccc(/C=C/C(=O)c2ccc(OC)cc2)cc1` [4,4'-DIMETHOXYCHALCONE], for which the inhibition in vivo at 160 mg/kg with Rattus norvegicus [1] turned out to be 72.9%; in the data set with Mus musculus [2], 87.5%. For the same compound, the Activity result in the data set with Mus musculus [3], with Mus musculus [4], in the data set with Mus musculus [5], in the data set on Mus musculus [6] and in the data set on Mus musculus [7] was “Non-toxic” each time.
`CC(=O)Oc1ccccc1C(=O)O` [ASPIRIN]: the inhibition in vivo at 10 mg/kg in the data set on Mus musculus [8] amounted to 88.9%.
For `COc1ccc2c(c1)c(CC(=O)O)c(C)n2C(=O)c1ccc(Cl)cc1` [INDOMETHACIN], the inhibition in vivo at 10 mg/kg in the data set on Rattus norvegicus [9] turned out to be 79.3%.

These data come from ChEMBL document CHEMBL3044776, “Microwave-assisted synthesis, pharmacological evaluation, and QSAR studies of 1,3-diaryl-2-propen-1-ones” (Med Chem Res, 2012).
